Patent US20130158035A1, “[…] COMPOUNDS” (Brigham Young University, priority 2010, published 2013)

Test system: MDCK cells
Experiment: HGF-induced epithelial-mesenchymal transition / migration of MDCK cells on transwell filters (crystal violet densitometry)
Type: cell-based
Details: then HGF, percentage like untreated controls (unstimulated cells = maximal effect, HGF only = nil); for Assay Value: 10 μM compound, 24 hours; for inhibition at 10 µM: Canis lupus familiaris, MDCK, 24 h
Method: MDCK cells were seeded at confluency into the wells of a transwell filter in DMEM with 10% fetal bovine serum. Cells were cultured for 24 hours. Test compounds, dissolved in DMSO, were added to each test well to a 10 μM final concentration, and then hepatocyte growth factor (HGF) was then added. The MDCK cells were cultured for 24 hours. Concurrently, controls treated with and without HGF and with no test compounds were also prepared.
After post-HGF addition culturing, transwell filters were prepared by repeated washing using ice cold PBS. The cells were then fixed with paraformaldehyde (3.7%) on ice for 15 minutes to the filters. After fixation, the transwell filters were washed repeatedly with PBS followed by staining with crystal violet for 15 minutes. The transwell filters were washed again with distilled water.
The upper surface of the transwell filters were swabbed using a cotton-tipped probe. The filters were photographed using a gel documentation system. Densitometry measurements were made on the test samples and compared with control samples.

## O=C1CC(c2ccc(F)cc2)c2cc3c(cc2N1)OCCO3 (centres unmarked) [Compound 62]
Table 2
  Assay Value: <5%

## COc1ccccc1C1CC(=O)Nc2cc(C)c(C)cc21 (centres unmarked) [Compound 34]
Table 2
  Assay Value: <5%

## O=[N+]([O-])c1cccc(S(=O)(=O)Nc2ccc(Cl)c(Cl)c2)c1 [Compound B-35]
Table 5, 10 μM compound
  inhibition at 10 µM: 71.1%

## O=C1CC(c2cc3c(cc2[N+](=O)[O-])OCO3)c2cc3c(cc2N1)CCC3 (centres unmarked) [Compound 91]
Table 2
  Assay Value: <5%

## Cc1nc(NC(=O)c2cccc([N+](=O)[O-])c2)ccc1Br [Compound B-6]
Table 4, 10 μM compound
  inhibition at 10 µM: 88.6%

## CCOc1ccc(C2CC(=O)Nc3cc4c(cc32)OCO4)cc1 (centres unmarked) [Compound 81]
Table 2
  Assay Value: <5%

## O=C1CC(c2ccccc2[N+](=O)[O-])c2cc3c(cc2N1)OCCO3 (centres unmarked) [Compound 67]
Table 2
  Assay Value: <5%

## COc1ccc(OC)c(C2CC(=O)Nc3cc(OC)c(OC)c(OC)c32)c1 (centres unmarked) [Compound 30]
Table 1
  Assay Value: 52.3%

## Cc1nc(NC(=O)COc2ccc([N+](=O)[O-])cc2)ccc1I [Compound B-2]
Table 4, 10 μM compound
  inhibition at 10 µM: 96.9%

## O=C1CC(c2ccccc2Br)c2cc3c(cc2N1)OCCO3 (centres unmarked) [Compound 36]
Table 2
  Assay Value: <5%

## COc1ccc(OC)c(C2CC(=O)Nc3cc4c(cc32)OCCO4)c1 (centres unmarked) [Compound 16]
Table 1
  Assay Value: 15.1%

## COc1cccc(C2CC(=O)Nc3cc4c(cc32)CCC4)c1 (centres unmarked) [Compound 29]
Table 1
  Assay Value: 69.3%

## Cc1nc(NC(=O)COc2ccc([N+](=O)[O-])cc2)ccc1Br [Compound B-1]
Table 4
  Assay Value: 97.1%

## O=C1CC(c2cc(F)ccc2F)c2cc3c(cc2N1)CCC3 (centres unmarked) [Compound 2]
Table 1
  Assay Value: 90.3%

## COc1cc(Br)c(C2CC(=O)Nc3cc4c(cc32)OCCO4)cc1OC (centres unmarked) [Compound 5]
Table 1
  Assay Value: 29.3%

## O=C1CC(c2cc3c(cc2Br)OCO3)c2cc3c(cc2N1)CCC3 (centres unmarked) [Compound 27]
Table 1
  Assay Value: 87.2%

## Cc1cc(C)c(NS(=O)(=O)c2cccc([N+](=O)[O-])c2)c(C)c1 [Compound B-38]
Table 5, 10 μM compound
  inhibition at 10 µM: 100%

## COc1ccc(C(=O)Nc2cccc(C)n2)cc1[N+](=O)[O-] [Compound B-11]
Table 4, 10 μM compound
  inhibition at 10 µM: < 5%

## COc1ccc(Cl)cc1C1CC(=O)Nc2cc3c(cc21)OCCO3 (centres unmarked) [Compound 10]
Table 1
  Assay Value: 62.9%

## Cc1cc(C)nc(NC(=O)c2cccc([N+](=O)[O-])c2)c1 [Compound B-7]
Table 4, 10 μM compound
  inhibition at 10 µM: 52.5%

## COc1cc2c(cc1OC)C(c1ccccc1C)CC(=O)N2 (centres unmarked) [Compound 40]
Table 2
  Assay Value: <5%

## O=C1CC(c2cc3c(cc2Cl)OCO3)c2cc3c(cc2N1)OCCO3 (centres unmarked) [Compound 20]
Table 1
  Assay Value: 5.9%

## NC(=O)c1ccccc1/N=C/c1ccc(Br)s1 [Compound A-12]
Table 3, 10 μM compound
  inhibition at 10 µM: 17.5%

## COc1ccc(/C=N/c2ccccc2C(N)=O)cc1 [Compound A-15]
Table 3, 10 μM compound
  inhibition at 10 µM: < 5%

## COc1cc2c(cc1OC)C(c1cccc(OCc3ccccc3)c1)CC(=O)N2 (centres unmarked) [Compound 60]
Table 2
  Assay Value: <5%

## CCCOc1ccc(C2CC(=O)Nc3cc(OC)c(OC)cc32)cc1 (centres unmarked) [Compound 43]
Table 2
  Assay Value: <5%

## CCCc1c(C(=O)OCC)[nH]c2c1C(=O)CC(c1cccs1)C2 (centres unmarked) [Compound C-9]
Table 6, 10 μM compound
  inhibition at 10 µM: 15.3%

## CCOc1cc2c(cc1OCC)C(c1ccccc1F)CC(=O)N2 (centres unmarked) [Compound 74]
Table 2
  Assay Value: <5%

## O=C1CC(c2cccc(F)c2F)c2cc3c(cc2N1)OCO3 (centres unmarked) [Compound 75]
Table 2
  Assay Value: <5%

## NC(=O)c1ccccc1/N=C/c1cccc2ccccc12 [Compound A-3]
Table 3, 10 μM compound
  inhibition at 10 µM: 87.8%

## Cc1nc(NC(=O)c2cc([N+](=O)[O-])ccc2N2CCOCC2)ccc1I [Compound B-4]
Table 4, 10 μM compound
  inhibition at 10 µM: 31.7%

## O=C1CC(c2ccccc2F)c2cc3c(cc2N1)OCCO3 (centres unmarked) [Compound 12]
Table 1
  Assay Value: 23.4%

## O=C1CC(c2ccc(Cl)c(Cl)c2)c2cc3c(cc2N1)OCCO3 (centres unmarked) [Compound 51]
Table 2
  Assay Value: <5%

## COc1cccc(C2CC(=O)Nc3cc4c(cc32)OCCO4)c1OC (centres unmarked) [Compound 46]
Table 2
  Assay Value: <5%

## COc1cc(OC)cc(C(=O)Nc2ccc(N3CCCC3)cc2)c1 [Compound B-29]
Table 5, 10 μM compound
  inhibition at 10 µM: 26.4%

## O=C1CC(c2ccccc2)c2cc3c(cc2N1)OCO3 (centres unmarked) [Compound 86]
Table 2
  Assay Value: <5%

## O=C(Nc1cccc(C(=O)N2CCOCC2)c1)c1ccc(-c2ccccc2)cc1 [Compound B-21]
Table 5, 10 μM compound
  inhibition at 10 µM: 27.2%

## COc1cc(CNc2ccc(C)c(Cl)c2)cc(Br)c1OC [Compound A-19]
Table 3, 10 μM compound
  inhibition at 10 µM: > 5%

## COc1cc2c(cc1OC)C(c1cccc(Cl)c1Cl)CC(=O)N2 (centres unmarked) [Compound 13]
Table 1
  Assay Value: >5%

## COc1cc(C2CC(=O)Nc3cc4c(cc32)OCCO4)ccc1OCc1ccccc1 (centres unmarked) [Compound 70]
Table 2
  Assay Value: <5%

## CC(C)c1ccc(C2CC(=O)Nc3cc4c(cc32)OCCO4)cc1 (centres unmarked) [Compound 79]
Table 2
  Assay Value: <5%

## O=C1CC(c2ccc(F)cc2F)c2cc3c(cc2N1)OCO3 (centres unmarked) [Compound 82]
Table 2
  Assay Value: <5%

## COc1ccc(C2CC(=O)Nc3cc4c(cc32)OCO4)cc1Cl (centres unmarked) [Compound 84]
Table 2
  Assay Value: <5%

## NC(=O)c1ccccc1/N=C/c1cccc(Cl)c1 [Compound A-9]
Table 3, 10 μM compound
  inhibition at 10 µM: 96.4%

## Cc1nc(NC(=O)c2ccc(N3CCOCC3)c([N+](=O)[O-])c2)ccc1I [Compound B-13]
Table 4
  Assay Value: 29.4%

## NC(=O)c1ccccc1/N=C/c1ccc2ccccc2c1 [Compound A-6]
Table 3, 10 μM compound
  inhibition at 10 µM: > 5%

## Cc1c(C(=O)OC2CCCCC2)[nH]c2c1C(=O)CC(c1cccs1)C2 (centres unmarked) [Compound C-11]
Table 6, 10 μM compound
  inhibition at 10 µM: < 5%

## NC(=O)c1ccccc1/N=C/c1ccccc1[N+](=O)[O-] [Compound A-7]
Table 3, 10 μM compound
  inhibition at 10 µM: 11.7%

## O=C1CC(c2ccc(O)cc2)c2cc3c(cc2N1)OCO3 (centres unmarked) [Compound 76]
Table 2
  Assay Value: <5%

## O=C1CC(c2cc3c(cc2[N+](=O)[O-])OCO3)c2cc3c(cc2N1)CCC3 (centres unmarked) [Compound 93]
Table 2
  Assay Value: <5%

## Cc1ccc(C2CC(=O)Nc3cc4c(cc32)OCCO4)cc1 (centres unmarked) [Compound 54]
Table 2
  Assay Value: <5%

## Cc1c(C(=O)OC2CCCC2)[nH]c2c1C(=O)CC(c1ccco1)C2 (centres unmarked) [Compound C-14]
Table 6, 10 μM compound
  inhibition at 10 µM: < 5%

## O=C1CC(c2ccccc2C(F)(F)F)c2cc3c(cc2N1)CCC3 (centres unmarked) [Compound 28]
Table 1
  Assay Value: 95.2%

## Cc1ccc(/C=N/c2ccccc2C(N)=O)o1 [Compound A-13]
Table 3, 10 μM compound
  inhibition at 10 µM: 11.2%

## Cc1cc(NC(=O)c2cccc([N+](=O)[O-])c2)ccc1I [Compound B-31]
Table 5, 10 μM compound
  inhibition at 10 µM: 53.1%

## NC(=O)c1ccccc1/N=C/c1cccc(O)c1O [Compound A-5]
Table 3, 10 μM compound
  inhibition at 10 µM: 48.8%

## O=C1CC(c2ccc([N+](=O)[O-])cc2)c2cc3c(cc2N1)OCCO3 (centres unmarked) [Compound 53]
Table 2
  Assay Value: <5%

## COc1cc2c(cc1OC)C(c1cccc(C)c1)CC(=O)N2 (centres unmarked) [Compound 64]
Table 2
  Assay Value: <5%

## COc1ccc(C(=O)c2cc([N+](=O)[O-])ccc2N2CCOCC2)cc1 [Compound B-34]
Table 5, 10 μM compound
  inhibition at 10 µM: 93.4%

## COc1cccc(C2CC(=O)Nc3cc4c(cc32)CCC4)c1OC (centres unmarked) [Compound 92]
Table 2
  Assay Value: <5%

## CCOC(=O)c1[nH]c2c(c1C)C(=O)CC(c1cccs1)C2 (centres unmarked) [Compound C-2]
Table 6, 10 μM compound
  inhibition at 10 µM: 49.7%

## COc1cccc(C(=O)Nc2cccc(C(=O)c3ccccc3)c2)c1 [Compound B-40]
Table 5, 10 μM compound
  inhibition at 10 µM: 93.1%

## COc1cccc(C2CC(=O)Nc3cc4c(cc32)OCCO4)c1OC (centres unmarked) [Compound 23]
Table 1
  Assay Value: 69.3%

## Cc1cc(NC(=O)c2cccc([N+](=O)[O-])c2C)c(C)cc1I [Compound B-32]
Table 5, 10 μM compound
  inhibition at 10 µM: 36.1%

## O=[N+]([O-])c1cccc(S(=O)(=O)Nc2ccc(I)cc2)c1 [Compound B-39]
Table 5, 10 μM compound
  inhibition at 10 µM: 89.3%

## CC(C)c1ccc(/C=N/c2ccccc2C(N)=O)cc1 [Compound A-14]
Table 3, 10 μM compound
  inhibition at 10 µM: < 5%

## CCOc1cc(C2CC(=O)Nc3cc4c(cc32)OCCO4)ccc1O (centres unmarked) [Compound 18]
Table 1
  Assay Value: 15.9%

## O=C1CC(c2ccc(OC(F)(F)F)cc2)c2cc3c(cc2N1)OCCO3 (centres unmarked) [Compound 78]
Table 2
  Assay Value: <5%

## O=C1CC(c2ccccc2F)c2cc3c(cc2N1)OCCO3 (centres unmarked) [Compound 69]
Table 2
  Assay Value: <5%

## CN(C)c1ccc(C2CC(=O)Nc3cc4c(cc32)OCO4)cc1 (centres unmarked) [Compound 80]
Table 2
  Assay Value: <5%

## COC(=O)c1[nH]c2c(c1C)C(=O)CC(c1ccc(OC)cc1)C2 (centres unmarked) [Compound C-16]
Table 6, 10 μM compound
  inhibition at 10 µM: < 5%
